Measured values from the supplement of paper PMC10307832.

Legend:
Experiment in all cases: relative viability (nuclei count vs DMSO), 5 days (fraction); higher = more cells survive
MK-2206 + Foretinib = compound: NC1(c2ccc(-c3nc4ccn5c(=O)[nH]nc5c4cc3-c3ccccc3)cc2)CCC1 [MK-2206] + COc1cc2c(Oc3ccc(NC(=O)C4(C(=O)Nc5ccc(F)cc5)CC4)cc3F)ccnc2cc1OCCCN1CCOCC1 [Foretinib] (partner 0.25 µM)
In short: (§1)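 Nuclei were stained with Hoechst during a one-step fixation (final 0.05% Triton X-100, 1% formaldehyde, 1 ug/ml Hoechst) carried out 5 days after dosing, then counted on 4× images. The cells, lung cancer lines in 1536-well plates, had been dosed by pin tool the day after seeding with one drug alone or a fixed anchor-drug dose plus five library-drug doses (not always all listed) in √10 steps. Relative viability is the nuclei count in treated wells divided by that in vehicle wells, and each value is the median of duplicate plates.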

Pictilisib + Olaparib = compound: CS(=O)(=O)N1CCN(Cc2cc3nc(-c4cccc5[nH]ncc45)nc(N4CCOCC4)c3s2)CC1 [Pictilisib] + O=C(c1cc(Cc2n[nH]c(=O)c3ccccc23)ccc1F)N1CCN(C(=O)C2CC2)CC1 [Olaparib] (partner 8 µM)
In short: as §1

Pictilisib + Crizotinib = compound: CS(=O)(=O)N1CCN(Cc2cc3nc(-c4cccc5[nH]ncc45)nc(N4CCOCC4)c3s2)CC1 [Pictilisib] + C[C@@H](Oc1cc(-c2cnn(C3CCNCC3)c2)cnc1N)c1c(Cl)ccc(F)c1Cl [Crizotinib] (partner 1 µM)
In short: as §1

MK-2206 + Olaparib = compound: NC1(c2ccc(-c3nc4ccn5c(=O)[nH]nc5c4cc3-c3ccccc3)cc2)CCC1 [MK-2206] + O=C(c1cc(Cc2n[nH]c(=O)c3ccccc23)ccc1F)N1CCN(C(=O)C2CC2)CC1 [Olaparib] (partner 8 µM)
In short: as §1

Pictilisib + OSI-027 = compound: CS(=O)(=O)N1CCN(Cc2cc3nc(-c4cccc5[nH]ncc45)nc(N4CCOCC4)c3s2)CC1 [Pictilisib] + COc1cccc2cc(-c3nc([C@H]4CC[C@H](C(=O)O)CC4)n4ncnc(N)c34)[nH]c12 [OSI-027] (partner 0.5 µM)
In short: as §1

Row | Cell Line | relative viability (MK-2206 + Foretinib; first compound 0.01 µM) | relative viability (MK-2206 + Foretinib; first compound 0.03162 µM) | relative viability (MK-2206 + Foretinib; first compound 0.3162 µM) | relative viability (MK-2206 + Foretinib; first compound 1 µM) | relative viability (Pictilisib + Olaparib; first compound 0.02 µM) | relative viability (Pictilisib + Olaparib; first compound 0.06325 µM) | relative viability (Pictilisib + Olaparib; first compound 0.6325 µM) | relative viability (Pictilisib + Olaparib; first compound 2 µM) | relative viability (Pictilisib + Crizotinib; first compound 0.06325 µM) | relative viability (Pictilisib + Crizotinib; first compound 0.6325 µM) | relative viability (Pictilisib + Crizotinib; first compound 2 µM) | relative viability (MK-2206 + Olaparib; first compound 0.01 µM) | relative viability (MK-2206 + Olaparib; first compound 0.03162 µM) | relative viability (MK-2206 + Olaparib; first compound 0.3162 µM) | relative viability (MK-2206 + Olaparib; first compound 1 µM) | relative viability (Pictilisib + OSI-027; first compound 0.02 µM) | relative viability (Pictilisib + OSI-027; first compound 0.06325 µM) | relative viability (Pictilisib + OSI-027; first compound 0.6325 µM) | relative viability (Pictilisib + OSI-027; first compound 2 µM) | relative viability (Pictilisib + Crizotinib; first compound 0.02 µM)
1 | NCI-H661 | 1.01 | 1.09 | 1.01 | 0.986 | 0.85 | 0.746 | 0.815 | 0.563 | 1.01 | 1.24 | 0.729 | 0.768 | 0.751 | 0.763 | 0.738 | 0.687 | 0.682 | 0.499 | 0.261 | 
2 | CAL-12T | 1.07 | 0.962 | 1.15 | 1.19 | 0.761 | 0.785 | 0.754 | 0.523 | 0.893 | 0.704 | 0.471 | 0.81 | 0.666 | 0.703 | 0.714 | 0.8 | 0.642 | 0.339 | 0.167 | 0.615
3 | HARA | 0.944 | 0.951 | 0.929 | 0.809 | 0.837 | 0.97 | 0.92 | 0.358 | 1.15 | 0.972 | 0.722 | 0.842 | 0.779 | 0.758 | 0.625 | 0.477 | 0.507 | 0.202 | 0.133 | 1.05
4 | HCC-44 |  |  |  |  | 1.02 | 1.06 | 1.12 | 0.915 | 0.783 | 0.882 | 0.455 | 1.06 | 1 | 1.04 | 0.97 | 0.587 | 0.5 | 0.405 | 0.266 | 0.781
5 | NCI-H1623 | 0.844 | 0.958 | 0.795 | 0.832 |  |  |  |  |  |  |  |  |  |  |  | 0.431 | 0.414 | 0.342 | 0.244 | 
6 | NCI-H1792 |  |  |  |  | 0.386 | 0.294 | 0.261 | 0.0715 | 0.925 | 0.772 | 0.425 | 0.497 | 0.514 | 0.532 | 0.264 | 0.752 | 0.617 | 0.335 | 0.173 | 0.916
7 | A549 | 0.752 | 0.817 | 0.914 | 0.907 | 0.441 | 0.355 | 0.283 | 0.211 | 0.729 | 0.436 | 0.199 | 0.389 | 0.439 | 0.333 | 0.125 |  |  |  |  | 0.694
8 | NCI-H522 |  |  |  |  | 0.619 | 0.663 | 0.561 | 0.493 |  |  |  | 0.668 | 0.624 | 0.629 | 0.666 | 0.635 | 0.719 | 0.64 | 0.57 | 
9 | NCI-H1703 | 0.368 | 0.309 | 0.377 | 0.333 | 0.471 | 0.378 | 0.214 | 0.122 | 0.666 | 0.261 | 0.178 | 0.444 | 0.426 | 0.443 | 0.407 |  |  |  |  | 0.532
10 | IA-LM | 1.06 | 1.11 | 1.07 | 1.19 | 0.952 | 0.987 | 0.792 | 0.516 | 0.75 | 0.628 | 0.534 | 0.869 | 0.791 | 0.993 | 0.781 |  |  |  |  | 0.649
11 | SW 900 | 0.864 | 0.936 | 0.882 | 0.769 | 0.793 | 0.818 | 0.713 | 0.471 |  |  |  | 0.79 |  | 0.874 | 0.885 | 0.655 | 0.715 | 0.501 | 0.289 | 
12 | NCI-H1648 |  |  |  |  | 0.701 | 0.561 | 0.355 | 0.264 |  |  |  | 1.01 | 1.11 | 0.966 | 0.769 | 0.256 | 0.248 | 0.275 | 0.266 | 
13 | NCI-H1563 | 0.882 | 0.988 | 0.832 | 0.769 |  |  |  |  | 0.889 | 0.761 | 0.581 |  |  |  |  | 0.737 | 0.713 | 0.554 | 0.57 | 0.924
14 | NCI-H2342 | 0.985 | 1.13 | 1 | 0.901 | 0.446 | 0.379 | 0.406 | 0.242 |  |  |  | 0.444 | 0.471 | 0.386 | 0.353 | 0.541 | 0.605 | 0.551 | 0.417 | 
15 | Calu-6 | 0.939 | 0.99 | 0.837 | 0.937 | 0.656 | 0.554 | 0.589 | 0.519 | 0.969 | 0.728 | 0.582 |  | 0.592 | 0.653 | 0.614 |  |  |  |  | 0.751
16 | NCI-H1395 | 1.03 | 0.966 | 0.885 | 0.922 | 0.514 | 0.439 | 0.367 | 0.367 |  |  |  | 0.492 | 0.49 | 0.418 | 0.411 | 0.796 | 0.658 | 0.568 | 0.392 | 
17 | NCI-H1793 | 0.786 | 0.779 | 0.834 | 0.578 | 0.812 | 0.613 | 0.331 | 0.167 |  |  |  | 0.87 | 1.02 | 0.791 | 0.766 | 0.255 | 0.236 | 0.185 | 0.149 | 
18 | NCI-H1299 | 1.15 | 1.06 | 1.15 | 1.16 | 0.996 | 1.01 | 1.03 | 0.858 | 1.03 | 1.05 | 0.933 | 0.967 | 1.04 | 1.05 | 1.02 |  |  |  |  | 0.99
19 | EBC-1 | 0.0881 | 0.12 | 0.117 | 0.106 | 0.681 | 0.741 | 0.564 | 0.243 | 0.211 | 0.213 | 0.175 | 0.362 | 0.685 | 0.484 | 0.175 |  |  |  |  | 0.205
